Earlier results on 1 compound are cited in US8313770B2, “Modifying drug release in suspensions of ionic resin systems” (NEOS Therapeutics, LP, priority 2007, dated 2012).

The structures appear in SMILES notation.

Regarding `COc1ccccc1OCC(O)CO` (stereo not shown) [Guaifenesin, 3(2-methoxyphenoxy)-1,2-propanediol], the “Solubility in water and alcohol” value is “soluble”.
